Results reported in publication PMC8131363 (Scientific Reports, 2021).
Structures can show the parent of a compound that is named as a salt. Where two headings read alike, the source gives them in different places. Starred links: 1 amine or outer side, 2 acyl side, 3 side chain; linkers in the order of their positions; H or OH if unused. Non-standard residues stand in square brackets, D forms with d. No end group written: not given here. γGlu = O=C(O)[C@H](CCC(=O)[*:2])N[*:1]; Abu = CC[C@H](N)C(=O)O

Columns and labels:
cCaSR [1] = biological target: T1, cCaSR (Felis catus, UniProt C7FF08); experiment: cCaSR PAM luminescence assay, double injection with 0.5 mM CaCl2, HEK293/T-REx/natClytin-cCaSR
T1 sequence (C7FF08 1-1081): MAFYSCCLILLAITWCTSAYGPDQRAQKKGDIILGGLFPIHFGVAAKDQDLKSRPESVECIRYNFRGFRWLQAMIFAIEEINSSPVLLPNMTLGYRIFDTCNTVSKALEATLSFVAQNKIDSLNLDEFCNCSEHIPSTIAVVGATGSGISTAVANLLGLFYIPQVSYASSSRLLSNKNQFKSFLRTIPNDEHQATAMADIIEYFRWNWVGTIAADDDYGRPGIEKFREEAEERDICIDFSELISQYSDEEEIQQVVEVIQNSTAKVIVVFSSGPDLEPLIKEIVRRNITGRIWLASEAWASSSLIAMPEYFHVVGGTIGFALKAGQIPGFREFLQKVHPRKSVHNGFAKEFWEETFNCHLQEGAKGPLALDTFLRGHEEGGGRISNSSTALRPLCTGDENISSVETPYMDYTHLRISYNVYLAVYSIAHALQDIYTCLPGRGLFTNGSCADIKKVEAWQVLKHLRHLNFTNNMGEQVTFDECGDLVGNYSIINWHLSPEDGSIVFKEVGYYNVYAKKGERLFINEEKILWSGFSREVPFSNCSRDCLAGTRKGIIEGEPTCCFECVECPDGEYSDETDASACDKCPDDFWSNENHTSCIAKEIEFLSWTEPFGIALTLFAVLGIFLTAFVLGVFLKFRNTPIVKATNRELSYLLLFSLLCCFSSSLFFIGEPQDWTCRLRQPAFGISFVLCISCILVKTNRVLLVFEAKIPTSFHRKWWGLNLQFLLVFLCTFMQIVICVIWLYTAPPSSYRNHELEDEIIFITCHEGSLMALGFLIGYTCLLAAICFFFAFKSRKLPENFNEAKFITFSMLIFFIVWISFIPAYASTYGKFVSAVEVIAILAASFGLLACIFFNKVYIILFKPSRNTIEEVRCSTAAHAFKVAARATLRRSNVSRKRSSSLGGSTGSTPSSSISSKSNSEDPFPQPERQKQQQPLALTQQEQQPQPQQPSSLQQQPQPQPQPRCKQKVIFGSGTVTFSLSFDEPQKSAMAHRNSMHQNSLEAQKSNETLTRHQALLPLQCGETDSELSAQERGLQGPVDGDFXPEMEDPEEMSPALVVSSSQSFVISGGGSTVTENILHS

cCaSR [2] = biological target: T1, cCaSR; experiment: cell-based
[3] = biological target: domestic cat Calcium Sensing Receptor (cCaSR) (Felis catus)
cCaSR [4] = biological target: T1, cCaSR
[5] = Supplementary Table I, PAM assay, dash = no activity
[6] = cCaSR activity, agonist assay, stable inducible cCaSR line, at least three wells
[7] = EC50 (M), agonist assay, stable inducible cCaSR line, > 0.01 M = maximal response not reached
[8] = EC50 Ago (M), Supplementary Table I, agonist assay, > 0.01 M = maximal response not reached

Compound	EC50 PAM (M) (cCaSR [1]; [5])	EC50 (cCaSR [2]; [6]) [M]	further results
N[C@@H](CC(=O)NCC(=O)O)C(=O)O [β-Asp-Gly]	-	> 0.01	
3-Glutathionyl-S-methylindole (peptide)			EC50 of agonist activity, luminescence (natClytin) in HEK T-Rex/natClytin cells inducibly expressing cCaSR, calcium-free buffer; activity grade ++ [3]: 3.74 mM
Poly-L-lysine (peptide)			EC50 of agonist activity, luminescence (natClytin) in HEK T-Rex/natClytin cells inducibly expressing cCaSR, calcium-free buffer; activity grade + [3]: > 10 mM
[γGlu]-Trp			EC50 of agonist activity, luminescence (natClytin) in HEK T-Rex/natClytin cells inducibly expressing cCaSR, calcium-free buffer; activity grade + [3]: > 10 mM
NC[C@H]1O[C@H](O[C@H]2[C@H](O[C@@H]3O[C@H](CO)[C@@H](O)[C@H]3O)[C@@H](O)[C@H](N)C[C@@H]2N)[C@H](N)[C@@H](O)[C@@H]1O [Ribostamycin sulfate salt, reference compound]	-	> 0.01	
CSCC[C@H](NC(=O)CC[C@H](N)C(=O)O)C(=O)O [γ-Glu-Met]	-	> 0.01	EC50 (cCaSR [2]; EC50 Value (heat map Fig. 5), cCaSR agonists, heat map): 0.00687 M
[γGlu]-[Abu]-Gly			EC50 of agonist activity, luminescence (natClytin) in HEK T-Rex/natClytin cells inducibly expressing cCaSR, calcium-free buffer; activity grade ++ [3]: 2.65 mM
COC(=O)C(N)CC(=O)O (racemic) [DL-Aspartic acid α-methyl ester]	-	> 0.01	agonist activity on cCaSR (in words) (cCaSR [4]): agonist activity
γ-Glu-Abu (peptide)			EC50 of agonist activity, luminescence (natClytin) in HEK T-Rex/natClytin cells inducibly expressing cCaSR, calcium-free buffer; activity grade + [3]: > 10 mM
γ-Glu-Phe (peptide)			EC50 of agonist activity, luminescence (natClytin) in HEK T-Rex/natClytin cells inducibly expressing cCaSR, calcium-free buffer; activity grade ++ [3]: 2.32 mM
Glutathione (peptide)			EC50 of agonist activity, luminescence (natClytin) in HEK T-Rex/natClytin cells inducibly expressing cCaSR, calcium-free buffer; activity grade ++ [3]: 6.39 mM
CC(C)C[C@H](NC(=O)C[C@H](N)C(=O)O)C(=O)O [β-Asp-Leu]	-	> 0.01	EC50 (cCaSR [2]; [8]): > 0.01 M
N[C@@H](CP(=O)(O)O)C(=O)O [L-( +)-2-Amino-3-phosphonopropionic acid, L-(+)-2-Amino-3-phosphonopropionic acid]			EC50 PAM (M) (cCaSR [1]): -; EC50 (cCaSR [2]; cCaSR activity): > 0.01 M

Continued, in another order:

EC50 PAM (M) (cCaSR [1]; [5])	EC50 (cCaSR [2]; [6]) [M]	Compound	further results
-	> 0.01	CC[C@H](NC(=O)CC[C@H](N)C(=O)O)C(=O)O	
-	0.001 to 0.01	CSC[C@H](NC(=O)CC[C@H](N)C(=O)O)C(=O)NCC(=O)O [S-Methylglutathione]	EC50 (cCaSR [2]; [7]): 0.00442 M; EC50 (cCaSR [2]; [8]): 0.00442 M
-	> 0.01	NC(=O)[C@@H](N)CCC(=O)O [L-Isoglutamine]	agonist activity on cCaSR (in words) (cCaSR [4]): agonist activity
-	0.001 to 0.01	N[C@@H](CCC(=O)N[C@@H](CSCc1c[nH]c2ccccc12)C(=O)NCC(=O)O)C(=O)O [3-Glutathionyl-S-methylindole]	EC50 (cCaSR [2]; [7]): 0.00374 M; EC50 (cCaSR [2]; [8]): 0.00375 M
-	> 0.01	C[C@H](NC(=O)C[C@H](N)C(=O)O)C(=O)O [β-Asp-Ala]	
-	> 0.01	N[C@@H](CC(=O)N[C@@H](Cc1ccccc1)C(=O)O)C(=O)O [β-Asp-Phe]	
-	0.001 to 0.01	N[C@@H](CCC(=O)N[C@@H](CCC(=O)O)C(=O)O)C(=O)O [γ-Glu-Glu]	EC50 (cCaSR [2]; [7]): 0.00207 M; EC50 (cCaSR [2]; [8]): 0.00206 M
-	> 0.01	NC(CC(F)C(=O)O)C(=O)O (racemic) [4-Fluoro-DL-glutamic acid]	
-	> 0.01	NC(CC(C(=O)O)C(=O)O)C(=O)O (racemic) [γ-Carboxy-DL-glutamic acid]	
-	> 0.01	CC(C)C[C@H](NC(=O)CC[C@H](N)C(=O)O)C(=O)O [γ-Glu-Leu]	
-		N[C@H](CCC(=O)N[C@@H](Cc1c[nH]c2ccccc12)C(=O)O)C(=O)O [γ-D-Glu-Trp]	EC50 (cCaSR [2]; [7]): 0.0042 M
-	> 0.01	N[C@@H](CCC(=O)N[C@@H](Cc1c[nH]c2ccccc12)C(=O)O)C(=O)O [γ-Glu-Trp]	
-	> 0.01	N[C@@H](CCS(=O)(=O)O)C(=O)O [L-Homocysteic acid]	
